Measured values reported in patent publication US20230024302A1, “2,3,5-TRISUBSTITUTED PYRAZOLO[1,5-A]PYRIMIDINE COMPOUNDS” (Arcus Biosciences, Inc., priority 2019, published 2023).

Columns and labels:
[1] = biological target: T1, PI3Kγ (Homo sapiens, UniProt P48736); assay: PI3Kγ cellular assay in THP-1 cells (AKT pS473 AlphaLISA); format: cell-based; details: Table 1, rhMCP-1 stimulated AKT pS473, read-out: cellular potency (PI3Kγ IC50)
T1 construct: host or cells: THP-1
Outline: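 Endogenous AKT S473 phosphorylation, detected by AlphaLISA in lysates, serves as the PI3Kγ activity read-out in stimulated, serum-starved THP-1 cells (1.8×10^5/well).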

[2] = biological target: T2, PI3Kγ (p120γ) (Homo sapiens, UniProt P48736); assay: Inhibition of PI3K kinase activity (ADP Glo), PI3Kγ; details: Table 1, p120γ, read-out: biochemical potency (PI3Kγ IC50)
T2 construct: purchased Promega V1761
Outline: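 IC50 values come from a 4-parameter nonlinear fit of ADP-Glo luminescence, which measures ADP produced as PIP2 is phosphorylated to PIP3. The p120γ enzyme (2× stock 8 nM) sat with compound 1 h at rt before substrate (2× stocks: 50 μM ATP, 0.1 mg/ml PIP2) was added. Phosphorylation then proceeded 60 min at rt.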

T2 sequence (P48736 whole entry): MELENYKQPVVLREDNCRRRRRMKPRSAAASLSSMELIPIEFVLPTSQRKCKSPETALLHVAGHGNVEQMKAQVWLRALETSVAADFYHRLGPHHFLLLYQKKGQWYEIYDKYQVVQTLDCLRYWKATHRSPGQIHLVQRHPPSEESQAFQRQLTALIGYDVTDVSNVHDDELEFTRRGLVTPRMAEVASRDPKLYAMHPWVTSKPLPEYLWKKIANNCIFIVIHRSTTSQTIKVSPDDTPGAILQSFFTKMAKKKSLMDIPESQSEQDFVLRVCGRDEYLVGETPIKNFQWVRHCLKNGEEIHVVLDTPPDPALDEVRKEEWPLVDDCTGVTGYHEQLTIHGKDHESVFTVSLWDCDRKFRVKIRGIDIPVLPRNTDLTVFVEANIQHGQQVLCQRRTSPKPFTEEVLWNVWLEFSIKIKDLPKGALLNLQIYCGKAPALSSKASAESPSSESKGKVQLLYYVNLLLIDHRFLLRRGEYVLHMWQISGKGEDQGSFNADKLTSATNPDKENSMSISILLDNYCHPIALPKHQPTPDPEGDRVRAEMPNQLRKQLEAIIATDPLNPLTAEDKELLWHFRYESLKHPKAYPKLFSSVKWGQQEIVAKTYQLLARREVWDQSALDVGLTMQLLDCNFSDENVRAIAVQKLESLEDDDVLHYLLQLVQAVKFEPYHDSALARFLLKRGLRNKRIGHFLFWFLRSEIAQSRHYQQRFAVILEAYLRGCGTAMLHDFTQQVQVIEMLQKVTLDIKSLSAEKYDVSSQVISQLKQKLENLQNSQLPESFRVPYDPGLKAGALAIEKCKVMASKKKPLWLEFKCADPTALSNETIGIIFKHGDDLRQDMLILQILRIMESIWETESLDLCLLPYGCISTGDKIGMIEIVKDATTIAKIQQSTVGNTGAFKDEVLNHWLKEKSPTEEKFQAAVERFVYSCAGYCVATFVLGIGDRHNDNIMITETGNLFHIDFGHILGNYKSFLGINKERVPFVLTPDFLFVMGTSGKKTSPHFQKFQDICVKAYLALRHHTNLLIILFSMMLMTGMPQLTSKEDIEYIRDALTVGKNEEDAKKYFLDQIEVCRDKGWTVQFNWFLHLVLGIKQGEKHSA
T1 sequence (P48736 whole entry): as above

SMILES | IC50 [1] [nM] | IC50 [2] [nM]
CCNS(=O)(=O)c1cc(-c2ccn3nc(N)c(C(=O)NC4CC4)c3n2)cc2c1C(=O)N([C@@H](C)C1CC1)C2 [Example 143, 2-Amino-N-cyclopropyl-5-{2-[(1S)-1-cyclopropylethyl]-7-(ethylsulfamoyl)-1-oxo-2,3-dihydro-1H-isoindol-5-yl}pyrazolo[1,5-a]pyrimidine-3-carboxamide] | < 100 | < 100
C[C@@H](C1CC1)N1Cc2cc(-c3ccn4nc(N)c(C(=O)N[C@H]5CNC(=O)C5)c4n3)cc(O[C@@H]3CCOC3)c2C1=O [Example 145, 2-Amino-5-{2-[(1S)-1-cyclopropylethyl]-1-oxo-7-[(3R)-oxolan-3-yloxy]-2,3-dihydro-1H-isoindol-5-yl}-N-[(3R)-5-oxopyrrolidin-3-yl]pyrazolo[1,5-a]pyrimidine-3-carboxamide] | < 100 | < 100
C[C@@H](C1CC1)N1Cc2cc(-c3ccn4nc(N)c(C(=O)NC5CC5)c4n3)cc(O[C@H]3CCOC3)c2C1=O [Example 146, 2-Amino-N-cyclopropyl-5-{2-[(1S)-1-cyclopropylethyl]-1-oxo-7-[(3S)-oxolan-3-yloxy]-2,3-dihydro-1H-isoindol-5-yl}pyrazolo[1,5-a]pyrimidine-3-carboxamide] | < 100 | < 100
C[C@@H](C1CC1)N1Cc2cc(-c3ccn4nc(N)c(C(=O)NC5CC5)c4n3)cc(O[C@@H]3CCOC3)c2C1=O [Example 148, 2-Amino-N-cyclopropyl-5-{2-[(1S)-1-cyclopropylethyl]-1-oxo-7-[(3R)-oxolan-3-yloxy]-2,3-dihydro-1H-isoindol-5-yl}pyrazolo[1,5-a]pyrimidine-3-carboxamide] | < 100 | < 100
C[C@@H](C1CC1)N1Cc2cc(-c3ccn4nc(N)c(C(=O)N[C@H]5CC[C@@](C)(O)CC5)c4n3)cc(N3CC[C@@H](O)C3)c2C1=O [Example 151, 2-Amino-5-{2-[(1S)-1-cyclopropylethyl]-7-[(3R)-3-hydroxypyrrolidin-1-yl]-1-oxo-2,3-dihydro-1H-isoindol-5-yl}-N-[cis-4-hydroxy-4-methylcyclohexyl]pyrazolo[1,5-a]pyrimidine-3-carboxamide] | < 100 | < 100
C[C@@H](C1CC1)N1Cc2cc(-c3ccn4nc(N)c(C(=O)NC5CC5)c4n3)cc(OCC(F)(F)F)c2C1=O [Example 155, 2-Amino-N-cyclopropyl-5-{2-[(1S)-1-cyclopropylethyl]-1-oxo-7-(2,2,2-trifluoroethoxy)-2,3-dihydro-1H-isoindol-5-yl}pyrazolo[1,5-a]pyrimidine-3-carboxamide] | < 100 | < 100
C[C@H](CO)NC(=O)c1c(N)nn2ccc(-c3cc4c(c(OCC(F)(F)F)c3)C(=O)N([C@@H](C)C3CC3)C4)nc12 [Example 156, 2-Amino-5-{2-[(1S)-1-cyclopropylethyl]-1-oxo-7-(2,2,2-trifluoroethoxy)-2,3-dihydro-1H-isoindol-5-yl}-N-[(2R)-1-hydroxypropan-2-yl]pyrazolo[1,5-a]pyrimidine-3-carboxamide] | < 100 | < 100
C[C@@H](C1CC1)N1Cc2cc(-c3ccn4nc(N)c(C(=O)NC5CC5)c4n3)cc(OC3CC(F)(F)C3)c2C1=O [Example 157, 2-Amino-N-cyclopropyl-5-{2-[(1S)-1-cyclopropylethyl]-7-(3,3-difluorocyclobutoxy)-1-oxo-2,3-dihydro-1H-isoindol-5-yl}pyrazolo[1,5-a]pyrimidine-3-carboxamide] | < 100 | < 100
C[C@@H](C1CC1)N1Cc2cc(-c3ccn4nc(N)c(C(=O)N[C@@H](CO)C5CC5)c4n3)cc(OC(F)F)c2C1=O [Example 159, 2-Amino-N-[(1R)-1-cyclopropyl-2-hydroxyethyl]-5-{2-[(1S)-1-cyclopropylethyl]-7-(difluoromethoxy)-1-oxo-2,3-dihydro-1H-isoindol-5-yl}pyrazolo[1,5-a]pyrimidine-3-carboxamide] | < 100 | < 100
C[C@@H](C1CC1)N1Cc2cc(-c3ccn4nc(N)c(C(=O)N[C@H]5CC[C@@](C)(O)CC5)c4n3)cc(OC(F)F)c2C1=O [Example 160, 2-Amino-5-{2-[(1S)-1-cyclopropylethyl]-7-(difluoromethoxy)-1-oxo-2,3-dihydro-1H-isoindol-5-yl}-N-[cis-4-hydroxy-4-methylcyclohexyl]pyrazolo[1,5-a]pyrimidine-3-carboxamide] | < 100 | < 100
C[C@@H](C1CC1)N1Cc2cc(-c3ccn4nc(N)c(C(=O)Nc5cccnc5)c4n3)cc(OC(F)F)c2C1=O [Example 161, 2-Amino-5-{2-[(1S)-1-cyclopropylethyl]-7-(difluoromethoxy)-1-oxo-2,3-dihydro-1H-isoindol-5-yl}-N-(pyridin-3-yl)pyrazolo[1,5-a]pyrimidine-3-carboxamide] | < 100 | < 100

The remaining lines, values ahead:

IC50 [1] [nM] | IC50 [2] [nM] | SMILES
< 100 | < 100 | CNS(=O)(=O)c1cc(-c2ccn3nc(N)c(C(=O)Nc4cnn(C)c4)c3n2)cc2c1C(=O)N([C@@H](C)C1CC1)C2 [Example 140, 2-Amino-5-{2-[(1S)-1-cyclopropylethyl]-7-(methylsulfamoyl)-1-oxo-2,3-dihydro-1H-isoindol-5-yl}-N-(1-methyl-1H-pyrazol-4-yl)pyrazolo[1,5-a]pyrimidine-3-carboxamide]
< 100 | < 100 | CNS(=O)(=O)c1cc(-c2ccn3nc(N)c(C(=O)N[C@H]4C[C@H](O)C4)c3n2)cc2c1C(=O)N([C@@H](C)C1CC1)C2 [Example 141, 2-Amino-5-{2-[(1S)-1-cyclopropylethyl]-7-(methylsulfamoyl)-1-oxo-2,3-dihydro-1H-isoindol-5-yl}-N-[trans-3-hydroxycyclobutyl]pyrazolo[1,5-a]pyrimidine-3-carboxamide]
< 100 | < 100 | CNS(=O)(=O)c1cc(-c2ccn3nc(N)c(C(=O)NC4CC4)c3n2)cc2c1C(=O)N([C@@H](C)C1CC1)C2 [Example 142, 2-Amino-N-cyclopropyl-5-{2-[(1S)-1-cyclopropylethyl]-7-(methylsulfamoyl)-1-oxo-2,3-dihydro-1H-isoindol-5-yl}pyrazolo[1,5-a]pyrimidine-3-carboxamide]
< 100 | < 100 | C[C@@H](C1CC1)N1Cc2cc(-c3ccn4nc(N)c(C(=O)NC5CC5)c4n3)cc(S(=O)(=O)N(C)C)c2C1=O [Example 144, 2-Amino-N-cyclopropyl-5-{2-[(1S)-1-cyclopropylethyl]-7-(dimethylsulfamoyl)-1-oxo-2,3-dihydro-1H-isoindol-5-yl}pyrazolo[1,5-a]pyrimidine-3-carboxamide]
< 100 | < 100 | C[C@@H](C1CC1)N1Cc2cc(-c3ccn4nc(N)c(C(=O)N[C@@H](CO)C5CC5)c4n3)cc(O[C@@H]3CCOC3)c2C1=O [Example 147, 2-Amino-N-[(1R)-1-cyclopropyl-2-hydroxyethyl]-5-{2-[(1S)-1-cyclopropylethyl]-1-oxo-7-[(3R)-oxolan-3-yloxy]-2,3-dihydro-1H-isoindol-5-yl}pyrazolo[1,5-a]pyrimidine-3-carboxamide]
< 100 | < 100 | C[C@@H](C1CC1)N1Cc2cc(-c3ccn4nc(N)c(C(=O)NC5CC5)c4n3)cc(O[C@H]3CC[C@H](O)CC3)c2C1=O [Example 149, 2-Amino-N-cyclopropyl-5-{2-[(1S)-1-cyclopropylethyl]-1-oxo-7-{[(1R,4R)-4-hydroxycyclohexyl]oxy}-2,3-dihydro-1H-isoindol-5-yl}pyrazolo[1,5-a]pyrimidine-3-carboxamide]
< 100 | < 100 | C[C@@H](C1CC1)N1Cc2cc(-c3ccn4nc(N)c(C(=O)NC5CC5)c4n3)cc(N3CC[C@@H](O)C3)c2C1=O [Example 150, 2-Amino-N-cyclopropyl-5-{2-[(1S)-1-cyclopropylethyl]-7-[(3R)-3-hydroxypyrrolidin-1-yl]-1-oxo-2,3-dihydro-1H-isoindol-5-yl}pyrazolo[1,5-a]pyrimidine-3-carboxamide]
< 100 | < 100 | C[C@@H](C1CC1)N1Cc2cc(-c3ccn4nc(N)c(C(=O)NC5CC5)c4n3)cc(N3CC[C@H](O)C3)c2C1=O [Example 152, 2-Amino-N-cyclopropyl-5-{2-[(1S)-1-cyclopropylethyl]-7-[(3S)-3-hydroxypyrrolidin-1-yl]-1-oxo-2,3-dihydro-1H-isoindol-5-yl}pyrazolo[1,5-a]pyrimidine-3-carboxamide]
< 100 | < 100 | C[C@@H](C1CC1)N1Cc2cc(-c3ccn4nc(N)c(C(=O)N[C@H]5CC[C@](O)(C(F)(F)F)CC5)c4n3)cc(N3CC[C@@H](O)C3)c2C1=O [Example 153, 2-Amino-5-{2-[(1S)-1-cyclopropylethyl]-7-[(3R)-3-hydroxypyrrolidin-1-yl]-1-oxo-2,3-dihydro-1H-isoindol-5-yl}-N-[cis-4-hydroxy-4-(trifluoromethyl)cyclohexyl]pyrazolo[1,5-a]pyrimidine-3-carboxamide]
< 100 | < 100 | C[C@@H](C1CC1)N1Cc2cc(-c3ccn4nc(N)c(C(=O)N[C@H]5CC[C@@](C)(O)CC5)c4n3)cc(N3CCOCC3)c2C1=O [Example 154, 2-Amino-5-{2-[(1S)-1-cyclopropylethyl]-7-(morpholin-4-yl)-1-oxo-2,3-dihydro-1H-isoindol-5-yl}-N-[cis-4-hydroxy-4-methylcyclohexyl]pyrazolo[1,5-a]pyrimidine-3-carboxamide]
< 100 | < 100 | C[C@@H](C1CC1)N1Cc2cc(-c3ccn4nc(N)c(C(=O)NC5CC5)c4n3)cc(OC(F)F)c2C1=O [Example 158, 2-Amino-N-cyclopropyl-5-{2-[(1S)-1-cyclopropylethyl]-7-(difluoromethoxy)-1-oxo-2,3-dihydro-1H-isoindol-5-yl}pyrazolo[1,5-a]pyrimidine-3-carboxamide]
